# In patent US12454525B2, “IL4I1 inhibitors and methods of use” (Merck Sharp & Dohme LLC, priority 2020, dated 2025):
# Molecular target: T1, recombinant IL4I1 (Homo sapiens, UniProt Q96RQ9)
# T1 construct: purchased R&D Systems 5684-AO-020
# T1 sequence (Q96RQ9 22-567): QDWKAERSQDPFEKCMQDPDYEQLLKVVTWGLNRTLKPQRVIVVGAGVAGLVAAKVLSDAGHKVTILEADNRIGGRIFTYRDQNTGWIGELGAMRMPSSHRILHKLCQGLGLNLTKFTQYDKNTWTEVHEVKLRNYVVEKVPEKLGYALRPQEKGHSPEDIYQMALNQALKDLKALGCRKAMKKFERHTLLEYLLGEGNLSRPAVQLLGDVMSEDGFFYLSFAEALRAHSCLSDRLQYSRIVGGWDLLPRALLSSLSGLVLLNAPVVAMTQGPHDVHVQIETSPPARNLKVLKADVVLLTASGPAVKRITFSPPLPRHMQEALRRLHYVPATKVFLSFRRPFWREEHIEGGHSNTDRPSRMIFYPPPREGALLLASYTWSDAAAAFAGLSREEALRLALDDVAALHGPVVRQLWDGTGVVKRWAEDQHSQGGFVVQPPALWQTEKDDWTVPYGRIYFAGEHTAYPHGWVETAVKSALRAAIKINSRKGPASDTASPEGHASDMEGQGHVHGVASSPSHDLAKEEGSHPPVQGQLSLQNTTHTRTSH
# Assay: IL4I1 Enzymatic Assay (Amplex Red/HRP coupled H2O2 detection)
# Assay type: biochemical
# Details: 240 min; four-hour pre-incubation with compound; 1 nM IL4I1, 1 mM each Phe/Tyr/Trp; ten-point titration; fluorescence readout; read-out: Potency EC50 (nM) (240 min)
# Method: Interleukin 4 inducible protein 1 (IL4I1) is an L-amino oxidase that catalyzes the oxidation of aromatic residues (Phe, Trp and Tyr): L-amino acid+H2O+O2→2-oxo acid+NH3+H2O2. Equal molar of H2O2 and the corresponding alpha-ketoacid are produced when IL4I1 and substrate are added. In this assay, the hydrogen peroxide generated by IL4I1 is then detected through a coupled reaction with Amplex Red (10-acetyl-3,7-dihydroxyphenoxazine) and […] (HRP) to produce Resorufin product that could be detected in the form of fluorescence signals. The assessment of the inhibitory effect of small molecules (EC50) on IL4I1 is measured by the effectiveness of the compounds to inhibit the production of H2O2.
# Using this assay, the potency (EC50) of each compound was determined from a ten-point (1:3 serial dilution) titration curve using the following outlined procedure. To each well of a black flat-bottom Greiner (Cat #781076) 384 well-plate, 25 nL of compound (0.1% DMSO in final assay volume of 25 μL) was dispensed, followed by the addition of 12.5 μL of 1x assay buffer (50 mM Hepes 7.0 and 0.005% Tween20 (Sigma, Cat #P8341; low peroxide grade)) containing 2 nM of recombinant IL4I1 (R&D Systems, Cat #5684-AO-020). Plates were placed in an ambient temperature humidified chamber for a four-hour pre-incubation with compound. Subsequently, each reaction was initiated by the addition of 12.5 μL 1x assay buffer containing 2 mM of each aromatic amino acids (Phe/Tyr/Trp), 0.1 mM Amplex Red and 2 U/mL of HRP. The final reaction in each well of 25 μL consists of 1 nM of IL411, 1 mM of each residues (Phe, Tyr and Trp), 0.05 mM Amplex Red and 1 U/mL of HRP. It should be noted that the concentrations of Amplex Red and HRP used here are in excess such that the conversion of H2O2 to Resorufin product occurs instantaneously and non-rate limiting. Reactions were allowed to proceed for 120 minutes followed by fluorescence readout on a Spectramax with the following set parameters: 544 nm excitation/590 nm emission, 570 nm cutoff (EnVision is an alternative reader). Dose-response curves were generated by plotting percent effect (% product conversion; Y-axis) vs. Log10 compound concentrations (X-axis). EC50 values were calculated using a non-linear regression, four-parameters sigmoidal dose-response model and are shown in Table 16.
row,SMILES,EC50
1,"CC(=O)NCc1ccc(Cn2c(=O)[nH]c3ccc(Cl)cc32)cc1 [Example 64, N-(4-((6-chloro-2-oxo-2,3-dihydro-1H-benzo[d]imidazol-1-yl)methyl)benzyl)acetamide]",56 nM
2,"CS(=O)(=O)NCc1ccc(Cn2c(=O)[nH]c3ccccc32)s1 [Example 6, N-((5-((2-oxo-2,3-dihydro-1H-benzo[d]imidazol-1-yl)methyl)thiophen-2-yl)methyl)methanesulfonamide]",6 nM
3,"O=c1[nH]c2ccccc2n1Cc1cccnc1 [Example 56, 1-(pyridin-3-ylmethyl)-1,3-dihydro-2H-benzo[d]imidazol-2-one]",2480 nM
4,"O=c1[nH]c2cc(F)c(F)cc2n1Cc1ccccc1 [Example 69, 1-benzyl-5,6-difluoro-1,3-dihydro-2H-benzo[d]imidazol-2-one]",2270 nM
5,"CS(=O)(=O)NCc1ccc(Cn2c(=O)[nH]c3ccccc32)cc1 [Example 12, N-(4-((2-oxo-2,3-dihydro-1H-benzo[d]imidazol-1-yl)methyl)benzyl)methanesulfonamide]",8 nM
6,"O=C1N(Cc2ccc(Cn3c(=O)[nH]c4ccccc43)cc2)CCC1(F)F [Example 43, 1-(4-((3,3-difluoro-2-oxopyrrolidin-1-yl)methyl)benzyl)-1,3-dihydro-2H-benzo[d]imidazol-2-one]",10 nM
7,"O=c1[nH]c2ccccc2n1Cc1cnc2c(c1)CCC2 [Example 34, 1-[(6,7-dihydro-5H-cyclopenta[b]pyridin-3-yl)methyl]-1,3-dihydro-2H-benzimidazol-2-one]",153 nM
8,"O=c1[nH]c2cccc(F)c2n1Cc1ccccc1 [Example 110, 1-benzyl-7-fluoro-1,3-dihydro-2H-benzimidazol-2-one]",9160 nM
9,"O=C(Cc1ccc(Cn2c(=O)[nH]c3ccccc32)cc1)N1CCC(F)C1 (centres unmarked) [Example 108, 1-(4-(2-(3-fluoropyrrolidin-1-yl)-2-oxoethyl)benzyl)-1,3-dihydro-2H-benzo[d]imidazol-2-one]",8 nM
10,"CNC(=O)c1csc(Cn2c(=O)[nH]c3ccccc32)c1 [Example 13, N-methyl-5-((2-oxo-2,3-dihydro-1H-benzo[d]imidazol-1-yl)methyl)thiophene-3-carboxamide]",6 nM
11,"O=C1CC2(CC2)CN1Cc1ccc(Cn2c(=O)[nH]c3ccccc32)cc1 [Example 22, 1-({4-[(6-oxo-5-azaspiro[2.4]heptan-5-yl)methyl]phenyl}methyl)-1,3-dihydro-2H-benzimidazol-2-one]",8 nM
12,"Cn1cnnc1Cc1ccc(Cn2c(=O)[nH]c3ccccc32)cc1 [Example 53, 1-(4-((4-methyl-4H-1,2,4-triazol-3-yl)methyl)benzyl)-1,3-dihydro-2H-benzo[d]imidazol-2-one]",12 nM
13,"CC(=O)N[C@H](C)c1ccc(Cn2c(=O)[nH]c3ccccc32)cc1 [Example 15, (R)—N-(1-(4-((2-oxo-2,3-dihydro-1H-benzo[d]imidazol-1-yl)methyl)phenyl)ethyl)acetamide]",19 nM
14,"CNC(=O)c1ccc(Cn2c(=O)[nH]c3ccccc32)s1 [Example 47, N-methyl-5-[(2-oxo-2,3-dihydro-1H-benzimidazol-1-yl)methyl]thiophene-2-carboxamide]",3 nM
15,"CC(=O)Nc1ccc(Cn2c(=O)[nH]c3ccccc32)cc1F [Example 32, N-{2-fluoro-4-[(2-oxo-2,3-dihydro-1H-benzimidazol-1-yl)methyl]phenyl} acetamide]",11 nM
16,"O=c1[nH]c2ccccc2n1C[C@@H]1C[C@H]1c1ccccc1 [Example 61, 1-{[(1R,2R)-2-phenylcyclopropyl]methyl}-1,3-dihydro-2H-benzimidazol-2-one]",8 nM

row,SMILES,EC50
1,"CC(=O)NC1CCc2ccc(Cn3c(=O)[nH]c4ccccc43)cc21 (single isomer, unassigned) [Example 45, N-(6-((2-oxo-2,3-dihydro-1H-benzo[d]imidazol-1-yl)methyl)-2,3-dihydro-1H-inden-1-yl)acetamide]",21 nM
2,"O=c1[nH]c2ccccc2n1Cc1ccc(Cc2nnco2)c(Cl)c1 [Example 4, 1-(4-((1,3,4-oxadiazol-2-yl)methyl)-3-chlorobenzyl)-1,3-dihydro-2H-benzo[d]imidazol-2-one]",6 nM
3,"O=c1[nH]c2ccccc2n1CCCOc1cccc2cccnc12 [Example 97, 1-(3-(quinolin-8-yloxy)propyl)-1,3-dihydro-2H-benzo[d]imidazol-2-one]",45 nM
4,"CC(=O)NCc1ccc(Cn2c(=O)[nH]c3ccccc32)c(C)c1 [Example 50, N-({3-methyl-4-[(2-oxo-2,3-dihydro-1H-benzimidazol-1-yl)methyl]phenyl}methyl)acetamide]",9 nM
5,"O=C1CCCN1Cc1sc(Cn2c(=O)[nH]c3ccccc32)cc1Cl [Example 36, 1-((4-chloro-5-((2-oxopyrrolidin-1-yl)methyl)thiophen-2-yl)methyl)-1,3-dihydro-2H-benzo[d]imidazol-2-one]",9 nM
6,"O=C1CCCN1Cc1ccc(Cn2c(=O)[nH]c3ccccc32)cc1Cl [Example 18, 1-(3-chloro-4-((2-oxopyrrolidin-1-yl)methyl)benzyl)-1,3-dihydro-2H-benzo[d]imidazol-2-one]",8 nM
7,"O=C1CCCN1Cc1ccc(Cn2c(=O)[nH]c3ccccc32)cc1I [Example 19, 1-(3-iodo-4-((2-oxopyrrolidin-1-yl)methyl)benzyl)-1,3-dihydro-2H-benzo[d]imidazol-2-one]",14 nM
8,"CNC(=O)Cc1ccc(Cn2c(=O)[nH]c3ccccc32)cc1 [Example 107, N-methyl-2-(4-((2-oxo-2,3-dihydro-1H-benzo[d]imidazol-1-yl)methyl)phenyl)acetamide]",5 nM
9,"CNC(=O)c1cc(C)cc(Cn2c(=O)[nH]c3ccccc32)c1 [Example 48, N,3-dimethyl-5-((2-oxo-2,3-dihydro-1H-benzo[d]imidazol-1-yl)methyl)benzamide]",16 nM
10,"CN(C)C(=O)Cc1ccc(Cn2c(=O)[nH]c3ccccc32)nc1 [Example 37, N,N-dimethyl-2-(6-((2-oxo-2,3-dihydro-1H-benzo[d]imidazol-1-yl)methyl)pyridin-3-yl)acetamide]",1600 nM
11,"O=C1CCCN1Cc1ccc(Cn2c(=O)[nH]c3cc(F)ccc32)cc1 (single isomer, unassigned) [Example 85, 5-fluoro-1-(4-((2-oxopyrrolidin-1-yl)methyl)benzyl)-1,3-dihydro-2H-benzo[d]imidazol-2-one]",389 nM
12,"CN(Cc1ccc(Cn2c(=O)[nH]c3ccccc32)cc1)S(C)(=O)=O [Example 21, N-methyl-N-({4-[(2-oxo-2,3-dihydro-1H-benzimidazol-1-yl)methyl]phenyl}methyl) methanesulfonamide]",8 nM
13,"O=c1[nH]c2ccccc2n1CCC1CCCCC1 [Example 58, 1-(2-cyclohexylethyl)-1,3-dihydro-2H-benzimidazol-2-one]",936 nM
14,"CNC(=O)c1cccc(Cn2c(=O)[nH]c3ccccc32)c1 [Example 29, N-methyl-3-[(2-oxo-2,3-dihydro-1H-benzimidazol-1-yl)methyl]benzamide]",5 nM
15,"CC(=O)NCc1ccc(Cn2c(=O)[nH]c3ccccc32)cc1Cl [Example 44, N-(2-chloro-4-((2-oxo-2,3-dihydro-1H-benzo[d]imidazol-1-yl)methyl)benzyl)acetamide]",13 nM
16,"O=C1CCCN1Cc1ccc(Cn2c(=O)[nH]c3ccccc32)c(F)c1 [Example 8, 1-({2-fluoro-4-[(2-oxopyrrolidin-1-yl)methyl]phenyl}methyl)-1,3-dihydro-2H-benzimidazol-2-one]",11 nM
